The record followed here is US4983613A, “Isoquinoline acetic acids and acetyl carbamates useful as aldose reductase inhibitors” (American Home Products Corporation, priority 1989, dated 1991).

The target of one test is T1, aldose reductase (Bos taurus, UniProt P16116).
T1 construct: in the preparation of the enzyme from bovine lens; from tissue; host or cells: bovine lens
In words: in vitro inhibition of aldose reductase (modified Hayman and Kinoshita procedure, enzyme from bovine lens). The format is biochemical. The settings on record: for inhibition at 0.04 µM: 4 × 10^-8 M; for inhibition at 10 µM: 10^-5 M; for inhibition at 1 µM: 10^-6 M; for inhibition at 0.1 µM: 10^-7 M. The method, then:
(c) The polyol determination was performed by a modification of the procedure of M. Kraml and L. Cosyns, Clin. Biochem., 2,373 (1969). Only two minor reagent changes were made: (a) The rinsing mixture was an aqueous 5% (w/v) trichloroacetic acid solution and (b) the stock solution was prepared by dissolving 25 mg of dulcitol in 100 ml of an aqueous trichloroacetic acid solution. [N.B.: For each experiment the average value found in the tissue from rats fed the glucose diet was subtracted from the individual values found in the corresponding tissue in galactose-fed rats to obtain the amount of polyol accumulated.] The aldose reductase inhibiting effects of the compounds of formula (I) were also tested by employing an in vitro testing procedure similar to that described by S. Hayman and J. H. Kinoshita, J. Biol. Chem., 240,877 (1965). In the present case the procedure of Hayman and Kinoshita was modified in that the final chromatography step was omitted in the preparation of the enzyme from bovine lens. […] The figures under L and N represent the percentage decrease of dulcitol accumulation in the tissues of the lens and sciatic nerve, respectively, for treated rats as compared to untreated rats.

Test [1] relates to dulcitol accumulation in sciatic nerve. The test is described as follows: in vivo lowering of dulcitol accumulation in sciatic nerve of galactosemic rats. As to conditions: in diet, four days. On the set-up: species or system rat (Sprague-Dawley). The source says: (§1) The aldose reductase inhibiting property of the compounds of this invention and the utilization of the compounds in preventing, diminishing and alleviating diabetic complications are demonstrable in experiments using galactosemic rats, see Dvornik et al., Science, 182, 1146 (1973). Such experiments are exemplified hereinbelow after the listing of the following general comments pertaining to these experiments:
(§2) (a) Four or more groups of six male rats, 50-70 g, Sprague-Dawley strain, were used. The first group, the control group, was fed a mixture of laboratory chow (Rodent Laboratory Chow, Purina) and glucose at 20% (w/w %) concentration. The untreated galactosemic group was fed a similar diet in which galactose is substituted for glucose. The third group was fed a diet prepared by mixing a given amount of the test compound with the galactose containing diet. The concentration of the galactose in the diet of the treated groups was the same as that for the untreated galactosemic group.
(§3) (b) After four days, the animals were killed by euthanization. The lenses were removed from the eyes and weighed. The sciatic nerves were dissected as completely as possible and weighed. Both tissues when frozen can be kept up to two weeks before being analyzed for dulcitol.
(c) The polyol determination was performed by a modification of the procedure of M. Kraml and L. Cosyns, Clin. Biochem., 2,373 (1969). Only two minor reagent changes were made: (a) The rinsing mixture was an aqueous 5% (w/v) trichloroacetic acid solution and (b) the stock solution was prepared by dissolving 25 mg of dulcitol in 100 ml of an aqueous trichloroacetic acid solution. [N.B.: For each experiment the average value found in the tissue from rats fed the glucose diet was subtracted from the individual values found in the corresponding tissue in galactose-fed rats to obtain the amount of polyol accumulated.] The aldose reductase inhibiting effects of the compounds of formula (I) were also tested by employing an in vitro testing procedure similar to that described by S. Hayman and J. H. Kinoshita, J. Biol. Chem., 240,877 (1965). In the present case the procedure of Hayman and Kinoshita was modified in that the final chromatography step was omitted in the preparation of the enzyme from bovine lens.
The figures under L and N represent the percentage decrease of dulcitol accumulation in the tissues of the lens and sciatic nerve, respectively, for treated rats as compared to untreated rats.

The test system of test [2] is dulcitol accumulation in lens. In words: in vivo lowering of dulcitol accumulation in lens of galactosemic rats. Also noted: species or system rat (Sprague-Dawley). As to conditions: in diet, four days.
Text: as §1, §2, §3
(c) The polyol determination was performed by a modification of the procedure of M. Kraml and L. Cosyns, Clin. Biochem., 2,373 (1969). Only two minor reagent changes were made: (a) The rinsing mixture was an aqueous 5% (w/v) trichloroacetic acid solution and (b) the stock solution was prepared by dissolving 25 mg of dulcitol in 100 ml of an aqueous trichloroacetic acid solution. [N.B.: For each experiment the average value found in the tissue from rats fed the glucose diet was subtracted from the individual values found in the corresponding tissue in galactose-fed rats to obtain the amount of polyol accumulated.] […]

On to `O=C(O)CC1C(=O)N(Cc2ccc(Br)cc2F)C(=O)c2ccccc21` (stereo not shown) [2-[(4-Bromo-2-fluorophenyl)methyl]-1,2,3,4-tetrahydro-1,3-dioxo-4-isoquinolineacetic Acid], for which, on aldose reductase, testing at 0.04 µM gave an inhibition of 50%, the inhibition at 10 µM turned out to be 94%, the inhibition at 1 µM worked out at 91% and testing at 0.1 µM gave an inhibition of 88%.
On aldose reductase, `O=C(O)CC1C(=O)N(Cc2ccc(Br)cc2F)C(=O)c2ccc(F)cc21` (stereo not shown) [2-[(4-Bromo-2-fluorophenyl)methyl]-6-fluoro-1,2,3,4-tetrahydro-1,3-dioxo-4-isoquinolineacetic Acid] gave an inhibition at 0.04 µM of 80%, an inhibition at 10 µM of 96%, an inhibition at 1 µM of 91% and an inhibition at 0.1 µM of 86%. Further, in test [1] (25 mg/kg), the “% Lowering Ducitol Accumulation In vivo, Nerve” value was 47%.
On aldose reductase, `COC(=O)NC(=O)CC1C(=O)N(C)C(=O)c2ccc(Cl)cc21` (stereo not shown) [6Cl, H, CH3, NHCO2 CH3, [(6-chloro-1,2,3,4-tetrahydro-2-methyl-1,3-dioxo-4-isoquinolinyl)acetyl]carbamic acid methyl ester] registered an inhibition at 10 µM of 64.5%. The same molecule gave an inhibition at 1 µM against aldose reductase of 26.6%. Moreover, the “% Lowering Ducitol Accumulation In vivo, Nerve” value amounted to 53% in test [1] (25 mg/kg) and 81% in test [1] (86.1 mg/kg). In addition, the “% Lowering Ducitol Accumulation In vivo, Lens” value in test [2] (25 mg/kg) is 24%; in test [2] (86.1 mg/kg), 55%.
For the molecule `COC(=O)NC(=O)CC1C(=O)N(C)C(=O)c2cc(Cl)ccc21` (stereo not shown) [7Cl, CH3, NHCO2 CH3, [(7-chloro-1,2,3,4-tetrahydro-2-methyl-1,3-dioxo-4-isoquinolinyl)acetyl]carbamic acid methyl ester], at aldose reductase, the inhibition at 10 µM stood at 50% and the inhibition at 1 µM turned out to be 17%. In test [1] (24.3 mg/kg), the “% Lowering Ducitol Accumulation In vivo, Nerve” value stood at 28%.
On to `CCOC(=O)NC(=O)CC1C(=O)N(C)C(=O)c2ccc(Cl)cc21` (stereo not shown) [-6Cl, H, CH3, NHCO2 C2 H5, [(6-chloro-1,2,3,4-tetrahydro-2-methyl-1,3-dioxo-4-isoquinolinyl)acetyl]carbamic acid ethyl ester], for which 10 µM produced 14.5% inhibition on aldose reductase. Also, the “% Lowering Ducitol Accumulation In vivo, Nerve” value in test [1] (24.5 mg/kg) was found to be 34%.
At aldose reductase, `COC(=O)NC(=O)CC1C(=O)N(C)C(=O)c2ccccc21` (stereo not shown) [H, H, CH3, NHCO2 CH3, [(1,2,3,4-Tetrahydro-2-methyl-1,3-dioxo-4-isoquinolinyl)acetyl]carbamic Acid Methyl Ester] showed an inhibition at 10 µM of 61%. On aldose reductase (10^- M (exponent not given)), the “% Inhibition in vitro” value worked out at 11%. Also, the entries for the “% Lowering Ducitol Accumulation In vivo, Nerve” value in test [1] (26.8 mg/kg) and in test [1] (85.0 mg/kg) were 21.2% and 58.6%, respectively. Also, the “% Lowering Ducitol Accumulation In vivo, Lens” value in test [2] (85.0 mg/kg) amounted to 37.2%.
On aldose reductase, `COC(=O)NC(=O)CC1C(=O)N(Cc2ccc(Br)cc2F)C(=O)c2ccc(F)cc21` (stereo not shown) [[[2-[(4-Bromo-2-fluorophenyl)methyl]-6-fluoro-1,2,3,4-tetrahydro-1,3-dioxo-4-isoquinolinyl]acetyl]carbamic Acid Methyl Ester] showed an inhibition at 10 µM of 55% and an inhibition at 1 µM of 18%. In addition, the “% Lowering Ducitol Accumulation In vivo, Nerve” value in test [1] (26 mg/kg) is recorded as 78%.
